Experimental data published in patent US10639251B2, “Method for inhibiting or masking fishy odours” (Symrise AG, priority 2015, dated 2020).
Where “and” joins values, the source holds several entries; their conditions need not be identical. Identical values can stand only once. Entries after “also recorded” stand apart in the source; their conditions may differ. Like-named read-outs stand apart in the source and are kept apart here.

How the values were obtained:
MOR42-3 = assay: Cre-luciferase assay, MOR42-3-mediated responses to azelaic acid; assay type: cell-based, murine; details: Timberol 30 μM; agonist below and above EC50
Protocol: (§1) In order to identify suitable antagonist for TMA the protocol of Zhuang and Matsunami for measuring receptor activity with the Dual-Glo Luciferase Assay System (Promega) was adapted [see Nat. Protoc. 3(9), p. 1402-1413 (2008)]. HANA3A cells were maintained under standard conditions in DMEM supplemented with 10% FBS and 100 units/ml penicillin and streptomycin at 37° C. Cells (approximately 15,000 cells/well) were plated on poly-D-lysine-coated 96-well plates (NUNC) and transfected after 24 h with the FuGENE® HD (Promega) transfection reagent according to the manufacturer's protocol. In a 96-well plate, we placed 18 μl transfection reagent, 1-5 μg receptor plasmid, 2 μg pGL4-luciferase reporter, 1 μg pRL-TK-Renilla reporter, 0.5 μg G-protein αolf, 1 μg receptor transport protein (RTP1S) and 1 μg M3 muscarinic acetylcholine receptor (for hOR51E1) to ensure cell surface expression. […] Expression rates of Cre-luciferase were monitored by luminescent enzymatic reactivity. Thus, luminescence signals correlate with receptor activation. […]
(§2) Another experiment was directed to figure out whether the Timberol® block is exclusively mediated by hTAAR5. […] Then the impact of Timberol® on MOR42-3- and hOR51E1-mediated responses to the respective agonists was tested with concentrations below and above the calculated EC50 values. […]

panelists = assay: Olfactory detection threshold of TMA, 3-alternative forced-choice, ISO 13301; assay type: in vivo, human; details: for influence of additive on TMA detection threshold / perception: 1% Timberol or 0.1% Mugetanol (isointense); for olfactory detection threshold of TMA: buffered aqueous solution pH 9
Protocol: In addition, olfactory detection thresholds were assessed in aqueous solutions using a best estimate threshold approach as described in ISO 13301. In brief, samples containing different concentrations of analyte were presented in ascending order in a 3-alternative forced-choice design. Each concentration set consisted of three samples with one deviating sample containing a defined amount of trimethylamine. Samples were presented in amber vials (30 ml) coded with three digits and filled with 10 ml of solution, and panelists were required to designate the sample that differed from the others.
Thresholds of TMA were measured in buffered aqueous solution i) without additive ii) with 1% (m/m) Timberol® and iii) with 0.1% Mugetanol (isointense to 1% Timberol®). These experiments were performed separately on different days with the same panelists. In the case of testing in the presence of fragrance components (Timberol® or Mugetanol), all three samples of a given concentration set contained the same amount of fragrance components and differed only in the presence/absence of TMA. In each session, a total of 10 concentration sets ranging from […] to 1.00×10^−5% (m/m) TMA were evaluated. The concentration doubled in each step.
The aqueous solutions were buffered with TRIS (50 mM), and the pH was adjusted to 9 to have approximately 13% of the TMA in a deprotonated and thus volatile form. Furthermore, an odorless emulsifier was added to a final concentration of 3% (m/m) to dissolve Timberol®.
In a second step, the influence of Timberol® on the perception of TMA was investigated using a psychophysical approach. Therefore the detection thresholds of TMA alone and in the presence of suprathreshold concentrations of Timberol® were tested. Threshold measurements were performed in a 3-alternative forced-choice design according to ISO 13301. A total of 10 concentrations (binary dilution steps) ranging from […] to 1.00×10^−5% (m/m) TMA were examined.

intracellular cAMP = assay: Control experiments: intracellular cAMP level in hTAAR5-transfected HANA3A cells (basal and forskolin-stimulated); assay type: cell-based, human
Protocol: In order to identify suitable antagonist for TMA the protocol of Zhuang and Matsunami for measuring receptor activity with the Dual-Glo Luciferase Assay System (Promega) was adapted [see Nat. Protoc. 3(9), p. 1402-1413 (2008)]. HANA3A cells were maintained under standard conditions in DMEM supplemented with 10% FBS and 100 units/ml penicillin and streptomycin at 37° C. Cells (approximately 15,000 cells/well) were plated on poly-D-lysine-coated 96-well plates (NUNC) and transfected after 24 h with the FuGENE® HD (Promega) transfection reagent according to the manufacturer's protocol. In a 96-well plate, we placed 18 μl transfection reagent, 1-5 μg receptor plasmid, 2 μg pGL4-luciferase reporter, 1 μg pRL-TK-Renilla reporter, 0.5 μg G-protein αolf, 1 μg receptor transport protein (RTP1S) and 1 μg M3 muscarinic acetylcholine receptor (for hOR51E1) to ensure cell surface expression. Cells were stimulated 24 h after transfection for 4 h at 37° C. with test substances diluted in CD 293 medium (1×) (Life Technologies) with 2 mM L-glutamine (Life Technologies) added. After stimulation with test substances, recombinant hTAAR5 activation elevated cAMP and the subsequent expression of the cAMP-dependent reporter gene construct Cre-luciferase. Expression rates of Cre-luciferase were monitored by luminescent enzymatic reactivity. Thus, luminescence signals correlate with receptor activation. […]

murine TAAR5 = target: T1, murine TAAR5 (Mus musculus, UniProt Q5QD14); assay: Cre-luciferase assay, murine TAAR5 responses to TMA; assay type: cell-based; details: Timberol 100 μM
T1 construct: expressed in transfected cells; host or cells: HANA3A cells
T1 sequence (Q5QD14 1-337): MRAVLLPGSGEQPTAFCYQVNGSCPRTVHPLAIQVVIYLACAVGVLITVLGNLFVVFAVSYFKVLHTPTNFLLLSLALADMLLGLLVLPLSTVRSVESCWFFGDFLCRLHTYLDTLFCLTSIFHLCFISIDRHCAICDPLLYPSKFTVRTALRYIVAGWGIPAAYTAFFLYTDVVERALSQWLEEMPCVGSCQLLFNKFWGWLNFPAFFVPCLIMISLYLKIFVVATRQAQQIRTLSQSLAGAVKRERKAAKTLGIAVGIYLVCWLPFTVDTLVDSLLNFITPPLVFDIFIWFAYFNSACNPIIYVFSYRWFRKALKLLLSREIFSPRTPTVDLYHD

hOR51E1 = target: T2, hOR51E1 (Homo sapiens, UniProt Q8TCB6); assay: Cre-luciferase assay, hOR51E1-mediated responses to nonanoic acid; assay type: cell-based; set-up: expressed in transfected cells; host or cells: HANA3A cells; details: Timberol 30 μM; agonist below and above EC50
T2 sequence (Q8TCB6 1-318): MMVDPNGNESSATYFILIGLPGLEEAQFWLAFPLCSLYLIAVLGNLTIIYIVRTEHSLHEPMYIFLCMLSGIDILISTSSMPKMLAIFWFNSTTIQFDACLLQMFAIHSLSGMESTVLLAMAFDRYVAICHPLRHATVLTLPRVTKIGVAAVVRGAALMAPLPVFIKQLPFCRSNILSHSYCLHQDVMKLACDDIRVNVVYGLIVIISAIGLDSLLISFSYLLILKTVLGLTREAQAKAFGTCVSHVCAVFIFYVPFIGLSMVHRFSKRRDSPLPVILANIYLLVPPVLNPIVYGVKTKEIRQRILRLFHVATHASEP
Protocol: as §1, §2

hTAAR5 [1] = target: T3, hTAAR5 (Homo sapiens, UniProt O14804); assay: Cre-luciferase reporter gene assay, hTAAR5-mediated responses to TMA in transfected HANA3A cells; assay type: cell-based; details: for IC50: read-out: half maximal inhibitory concentration (IC50); for reduction / inhibition of hTAAR5-mediated TMA responses: TMA 300 μM, putative antagonist 100 μM
T3 construct: expressed in transfected cells; host or cells: HANA3A cells
T3 sequence (O14804 1-337): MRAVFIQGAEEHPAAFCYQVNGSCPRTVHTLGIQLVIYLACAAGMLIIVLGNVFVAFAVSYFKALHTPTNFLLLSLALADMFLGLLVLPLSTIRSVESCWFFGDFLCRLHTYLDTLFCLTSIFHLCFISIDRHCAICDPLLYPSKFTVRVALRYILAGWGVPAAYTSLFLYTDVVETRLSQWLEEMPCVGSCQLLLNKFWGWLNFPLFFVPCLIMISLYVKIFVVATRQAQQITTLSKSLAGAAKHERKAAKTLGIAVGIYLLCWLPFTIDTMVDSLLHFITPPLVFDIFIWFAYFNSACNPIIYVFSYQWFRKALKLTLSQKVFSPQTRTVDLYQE
Protocol: In order to identify suitable antagonist for TMA the protocol of Zhuang and Matsunami for measuring receptor activity with the Dual-Glo Luciferase Assay System (Promega) was adapted [see Nat. Protoc. 3(9), p. 1402-1413 (2008)]. HANA3A cells were maintained under standard conditions in DMEM supplemented with 10% FBS and 100 units/ml penicillin and streptomycin at 37° C. Cells (approximately 15,000 cells/well) were plated on poly-D-lysine-coated 96-well plates (NUNC) and transfected after 24 h with the FuGENE® HD (Promega) transfection reagent according to the manufacturer's protocol. In a 96-well plate, we placed 18 μl transfection reagent, 1-5 μg receptor plasmid, 2 μg pGL4-luciferase reporter, 1 μg pRL-TK-Renilla reporter, 0.5 μg G-protein αolf, 1 μg receptor transport protein (RTP1S) and 1 μg M3 muscarinic acetylcholine receptor (for hOR51E1) to ensure cell surface expression. Cells were stimulated 24 h after transfection for 4 h at 37° C. with test substances diluted in CD 293 medium (1×) (Life Technologies) with 2 mM L-glutamine (Life Technologies) added. After stimulation with test substances, recombinant hTAAR5 activation elevated cAMP and the subsequent expression of the cAMP-dependent reporter gene construct Cre-luciferase. Expression rates of Cre-luciferase were monitored by luminescent enzymatic reactivity. Thus, luminescence signals correlate with receptor activation. The Renilla luciferase reporter driven by a constitutively active TK-promoter (pRL-TK-Renilla) served as an internal control to determine cell viability and transfection efficiency. Firefly luciferase activity to the Renilla luciferase signal was normalized for all wells. The ratios of antagonistic stimulation were normalized to the ratios of agonist stimulation. Furthermore, mock-transfected cells were stimulated to exclude unspecific responses to the tested substances.
To identify blocker substances for hTAAR5-mediated responses to TMA, the Cre-luciferase reporter gene assay was used. Human TAAR5-transfected HANA3A cells were stimulated with a mix of the agonist TMA (300 μM) and 100 μM of a potential blocker substance (FIG. 1).
For more detailed information concerning the type of antagonism (competitive vs. non-competitive) in the following experiments, the pharmacological profile of Timberol® was characterized. To test the concentration dependency of the Timberol® block, a concentration-inhibition curve (FIG. 2a) was measured. The blocking effect was increased with increasing concentrations of Timberol® and decreased with increasing concentrations of the agonist TMA. The latter was reflected by a significant concentration-inhibition curve shift.

humans = details: in vivo; cited from earlier work
hTAAR5 [2] = target: T3, hTAAR5; details: agonist; cited from earlier work

With `CCCC(O)CCC1C(C)CCCC1(C)C` (centres unmarked) [Timberol®, Norlimbanol] the “blocking effect on MOR42-3-mediated responses to azelaic acid” value (MOR42-3) was “no any significant impact; also recorded: No significant blocking effects”, the “influence of additive on TMA detection threshold / perception” value (panelists) was “abolished the ability to perceive TMA around perithreshold concentrations; also recorded: shifted to a significantly higher concentration” and the “subjects less sensitive to TMA in the presence of Timberol” value (panelists; of the 27 tested subjects) was 23. For the same compound, the “basal cAMP production” value (intracellular cAMP; Timberol (100 μM) alone vs unstimulated controls) was “No significant reduction; also recorded: did not affect”, the “cAMP levels after forskolin” value (intracellular cAMP; Timberol (100 μM) mixed with 10 μM forskolin vs forskolin alone) was “no significant difference; also recorded: did not affect” and the “blocking effect on murine TAAR5” value (murine TAAR5; 1 μM TMA) was 34%±2%. The “inhibition of mTAAR5-mediated responses to TMA” value (murine TAAR5) was “able to block; also recorded: inhibits”, the “blocking effect on hOR51E1-mediated responses to nonanoic acid” value (hOR51E1) was “no any significant impact; also recorded: No significant blocking effects” and the “block of average hTAAR5 responses” value (hTAAR5 [1]; 30 μM Timberol) was “at least 50%”. The “block of hTAAR5 response” value (hTAAR5 [1]; 30 μM Timberol, 30 μM TMA) was roughly 78%, the “block of hTAAR5 response” value (hTAAR5 [1]; 30 μM Timberol, 100 μM TMA) was roughly 56% and the blocking effect (hTAAR5 [1]; 100 μM Timberol, 30 μM TMA) was ~96% and 96%±1.7%. For the same compound, the blocking effect (hTAAR5 [1]; 100 μM Timberol, 100 μM TMA) was 86%±3.6%, the “inhibition of hTAAR5 responses to TMA” value (hTAAR5 [1]; 100 μM Timberol, 300 μM TMA) was 72%±6% and the IC50 (hTAAR5 [1]; TMA 30 μM) was 16.6 µM. The IC50 (hTAAR5 [1]; TMA 100 μM) was 27.8 µM and the “reduction / inhibition of hTAAR5-mediated TMA responses” value (hTAAR5 [1]) was “nearly completely block”.
With `CC(C)C1CCC(C(C)O)CC1` (centres unmarked) [Mugetanol, reference compound] the “influence of additive on TMA detection threshold / perception” value (panelists) was “does not influence significantly” and the “reduction / inhibition of hTAAR5-mediated TMA responses” value (hTAAR5 [1]) was “does not inhibit”.
In the case of `CN(C)C` [TMA, trimethylamine, reference compound], the “olfactory detection threshold of TMA” value (panelists; TMA alone) is given as 2.0×10^−7 % (m/m), the “olfactory detection threshold of TMA” value (panelists; in the presence of Timberol (1% m/m)) is given as 1.0×10^−6 % (m/m) and the “detection threshold in humans” value (humans) is given as 0.00047 ppm. The “activation of hTAAR5” value (hTAAR5 [2]) was “specifically activated”.
